From ChEMBL document CHEMBL4177563, “The medicinal chemistry of Chikungunya virus” (Bioorg Med Chem, 2017)

What was measured:
Chikungunya virus [1] = assay: Antiviral activity against Chikungunya virus 899 infected in African green monkey Vero-A cells assessed as inhibition of viral-induced cytopathic effect measured on day 7 post infection by MTS/PMS assay; assay type: functional, organism-based; conditions: Chikungunya virus, 899, 168 h
[2] = Selectivity index, ratio of CC50 for African green monkey Vero cells to EC50 for Chikungunya virus; assay type: toxicity; conditions: read-out: Ratio CC50/EC50
Chikungunya virus [3] = assay: Antiviral activity against Chikungunya virus infected in African green monkey Vero cells; assay type: functional, organism-based
Chikungunya virus [4] = assay: Antiviral activity against Chikungunya virus infected in BHK21 cells assessed as reduction in plague formation at 1 uM after 24 hrs relative to control; assay type: functional; conditions: BHK-21, 24 h
[5] = Selectivity index, ratio of CC50 for African green monkey Vero cells to IC50 for Chikungunya virus nsP2 protease; assay type: toxicity; conditions: read-out: Ratio CC50/IC50
Chikungunya virus [6] = assay: Antiviral activity against Chikungunya virus C347 infected in African green monkey Vero cells assessed as inhibition of viral-induced cytopathic effect after 2 days by microscopic analysis; assay type: functional, organism-based; conditions: 48 h
Chikungunya virus [7] = assay: Antiviral activity against Chikungunya virus 899 infected in African green monkey Vero cells assessed as inhibition of virus-induced cytopathogenic effect measured on day 5 post infection by MTS/PMS based microscopic analysis; assay type: functional, organism-based; conditions: Chikungunya virus, 899, Vero, 120 h
Vero = assay: Cytotoxicity against African green monkey Vero cells assessed as reduction in cell viability measured on day 5 post dose by MTS/PMS based microscopic analysis; conditions: chlorocebus sabaeus
Chikungunya virus [8] = assay: Antiviral activity against Chikungunya virus infected in BHK-21 cells by RT-qPCR analysis; assay type: functional, organism-based
[9] = Cytotoxicity against human U2OS cells assessed as reduction in cell viability after 16 hrs by CCK-8 assay; assay type: cell-based
Chikungunya virus [10] = assay: Antiviral activity against Chikungunya virus infected in human U2OS cells by RT-qPCR analysis; assay type: functional, organism-based
Chikungunya virus [11] = assay: Antiviral activity against Chikungunya virus 0611aTw infected in BHK-21 cells by RT-qPCR analysis; assay type: functional, organism-based
[12] = Selectivity index, ratio of CC50 for BHK-21 cells to EC50 for Chikungunya virus 0611aTw; assay type: toxicity; conditions: hamster, read-out: Ratio CC50/EC50
[13] = Selectivity index, ratio of CC50 for BHK-21 cells to EC50 for Chikungunya virus 0810bTw; assay type: toxicity; conditions: hamster, read-out: Ratio CC50/EC50
Chikungunya virus [14] = assay: Antiviral activity against Chikungunya virus 0810bTw infected in BHK-21 cells by RT-qPCR analysis; assay type: functional, organism-based
[15] = Cytotoxicity against BHK21 cells assessed as reduction in cell viability after 16 hrs by CCK-8 assay; assay type: cell-based, Mesocricetus auratus; conditions: hamster, BHK-21 cells
[16] = Selectivity index, ratio of CC50 for human U2OS cells to EC50 for Chikungunya virus; assay type: toxicity; conditions: read-out: Ratio CC50/EC50
[17] = Selectivity index, ratio of CC50 for BHK-21 cells to EC50 for Chikungunya virus; assay type: toxicity; conditions: hamster, read-out: Ratio CC50/EC50
Chikungunya virus [18] = assay: Antiviral activity against Chikungunya virus KC969208 infected in African green monkey Vero cells after 48 hrs by MTT dye-based assay; assay type: functional, organism-based
[19] = Selectivity index, ratio of CC50 for African green monkey Vero cells to IC50 for Chikungunya virus KC969208; assay type: toxicity; conditions: read-out: Ratio CC50/IC50
Chikungunya virus [20] = assay: Antiviral activity against Chikungunya virus LR2006-OPY1 infected in human Huh7.5 cells after 48 hrs by luciferase reporter gene assay; assay type: functional, organism-based; conditions: LR2006-OPY1, Huh7.5, 48 h
[21] = Cytotoxicity against human Huh7.5 cells in presence of ATP by Celltiter-Glo assay; assay type: cell-based
[22] = Selectivity index, ratio of CC50 for human Huh7.5 cells to EC50 for Chikungunya virus; assay type: toxicity; conditions: read-out: Ratio CC50/EC50
Chikungunya virus [23] = assay: Antiviral activity against Chikungunya virus at 0.006 to 300 uM by cell based luciferase reporter gene assay relative to control; assay type: functional
Chikungunya virus [24] = assay: Antiviral activity against Chikungunya virus LR2006-OPY1 infected in BHK21 cells after 48 hrs by luciferase reporter gene assay; assay type: functional, organism-based; conditions: LR2006-OPY1, BHK-21, 48 h
[25] = Cytotoxicity against BHK21 cells in presence of ATP by Celltiter-Glo assay; assay type: cell-based, Mesocricetus auratus; conditions: hamster, BHK-21 cells
[26] = Selectivity index, ratio of CC50 for BHK21 cells to EC50 for Chikungunya virus; assay type: toxicity; conditions: hamster, BHK-21 cells; read-out: Ratio CC50/EC50
Chikungunya virus [27] = assay: Antiviral activity against Chikungunya virus 899 infected in African green monkey Vero A cells assessed as reduction in viral infectious progeny by end-point titration assay; assay type: functional, organism-based; conditions: Chikungunya virus, 899, Vero
Chikungunya virus [28] = assay: Antiviral activity against Chikungunya virus 899 infected in African green monkey Vero A cells by real-time qRT-PCR analysis; assay type: functional, organism-based; conditions: Chikungunya virus, 899, Vero
[29] = Cytotoxicity against African green monkey Vero A cells assessed as reduction in cell viability measured on day 5 post infection by MTS/PMS based microscopic analysis; conditions: chlorocebus sabaeus
Chikungunya virus [30] = assay: Antiviral activity against Chikungunya virus 899 infected in African green monkey Vero A cells assessed as inhibition of virus-induced cytopathogenic effect measured on day 5 post infection by MTS/PMS based microscopic analysis; assay type: functional, organism-based; conditions: Chikungunya virus, 899, Vero, 120 h
Chikungunya virus [31] = assay: Antiviral activity against Chikungunya virus LR2006 OPY1 infected in human MRC5 cells after 48 hrs by indirect immunofluorescence analysis; assay type: functional, organism-based; conditions: LR2006 OPY1, MRC5, 48 h

SMILES: NC(=O)c1nccnc1O
- EC50 (Chikungunya virus [1]): 7 µM

SMILES: C/C(=C\C(=O)O[C@@H]1[C@H](C)C[C@H]2O[C@]1(O)[C@@H](O)[C@H]1CC[C@H](O1)C(C)(C)/C=C/[C@H](C)C2=O)C(C)O (stereo not given in full)
- selectivity ratio [2]: 3.2
- EC50 (Chikungunya virus [3]): 34 µM

SMILES: C[C@H]1O[C@@H](O[C@H]2CC[C@@]3(C)[C@H](CC[C@@H]4[C@@H]3C[C@@H](O)[C@]3(C)[C@@H](C5=CC(=O)OC5)CC[C@]43O)C2)C[C@H](O)[C@@H]1O[C@H]1C[C@H](O)[C@H](O[C@H]2C[C@H](O)[C@H](O[C@@H]3O[C@H](CO)[C@@H](O)[C@H](O)[C@H]3O)[C@@H](C)O2)[C@@H](C)O1 [DESLANOSIDE]
- inhibition at 1 µM (Chikungunya virus [4]): 38.7%

SMILES: CCOc1ccc(/C=N/NC(=O)/C=C/Cc2ccc(C(C)(C)C)cc2)cc1OCC
- selectivity ratio [5]: 32

SMILES: O=c1cnn([C@@H]2O[C@H](CO)[C@@H](O)[C@H]2O)c(=O)[nH]1 [6-AZAURIDINE]
- EC50 (Chikungunya virus [6]): 0.82 µM

SMILES: CC(=O)C(C)/C(C)=C/C(=O)O[C@@H]1[C@H](C)C[C@H]2O[C@]1(O)[C@@H](O)[C@H]1CC[C@H](O1)C(C)(C)/C=C/[C@H](C)C2=O (stereo not given in full)
- selectivity ratio [2]: 8.8
- EC50 (Chikungunya virus [3]): 7 µM

SMILES: CN1CCN(c2nc(C3=C(c4c[nH]c5ccccc45)C(=O)NC3=O)c3ccccc3n2)CC1 [SOTRASTAURIN]
- EC50 (Chikungunya virus [7]): > 66 µM
- CC50 (Vero): 66 µM

SMILES: CC(=O)Oc1ccccc1C(=O)Nc1ncc([N+](=O)[O-])s1 [NITAZOXANIDE]
- EC50 (Chikungunya virus [8]): 2.96 µM
- CC50 at 16 h [9]: 25 µM
- EC50 (Chikungunya virus [10]): 3.01 µM
- EC50 (Chikungunya virus [11]): 1.96 µM
- selectivity ratio [12]: 12.8
- selectivity ratio [13]: 5.05
- EC50 (Chikungunya virus [14]): 4.95 µM
- CC50 at 16 h [15]: 25 µM
- selectivity ratio [16]: 8.31
- selectivity ratio [17]: 8.45

SMILES: CCCCCCCCCCCCCCCCCOC(=O)c1ccccc1C(=O)O
- IC50 (Chikungunya virus [18]): 76.5 µM
- selectivity ratio [19]: 4.66

SMILES: O=C(Nc1ccc([N+](=O)[O-])cc1Cl)c1cc(Cl)ccc1O [NICLOSAMIDE]
- EC50 (Chikungunya virus [8]): 0.95 µM
- CC50 at 16 h [9]: > 20 µM
- EC50 (Chikungunya virus [10]): 0.36 µM
- EC50 (Chikungunya virus [11]): 0.85 µM
- selectivity ratio [12]: > 23.5
- selectivity ratio [13]: > 22.2
- EC50 (Chikungunya virus [14]): 0.9 µM
- CC50 at 16 h [15]: > 20 µM
- selectivity ratio [16]: > 55.5
- selectivity ratio [17]: > 21

SMILES: COc1ccc2cc3[n+](cc2c1OC)CCc1cc2c(cc1-3)OCO2 [BERBERINE]
- EC50 (Chikungunya virus [20]): 1.9 µM
- CC50 [21]: > 100 µM
- selectivity ratio [22]: > 52.6
- Activity (Chikungunya virus [23]): >85%
- EC50 (Chikungunya virus [24]): 1.8 µM
- CC50 [25]: > 100 µM
- selectivity ratio [26]: > 55.6

SMILES: CC[C@H](C)[C@H]1O[C@]2(CC[C@@H]1C)C[C@@H]1C[C@@H](C/C=C(\C)[C@@H](O[C@H]3C[C@H](OC)[C@@H](O[C@H]4C[C@H](OC)[C@@H](O)[C@H](C)O4)[C@H](C)O3)[C@@H](C)/C=C/C=C3\CO[C@]4(O)[C@H](O)C(C)=C[C@@H](C(=O)O1)[C@]34O)O2
- EC50 (Chikungunya virus [20]): 1.9 µM
- CC50 [21]: 8 µM
- selectivity ratio [22]: 4.1
- EC50 (Chikungunya virus [24]): 0.6 µM
- CC50 [25]: 37.9 µM
- selectivity ratio [26]: 62.4

SMILES: CCCCCCCC(=O)O[C@H]1/C(=C/C(=O)OC)C[C@H]2C[C@H](COC)OC(=O)CCOc3ccccc3C(=O)OCC(C)(C)[C@]1(O)O2
- EC50 (Chikungunya virus [27]): 4.1 µM
- EC50 (Chikungunya virus [28]): 6 µM
- CC50 at 5 days [29]: > 50 µM
- EC50 (Chikungunya virus [30]): 7.5 µM

SMILES: CCOC(=O)c1c(C[S+]([O-])c2ccccc2)n(C)c2cc(Br)c(O)c(CN(C)C)c12 (stereo not given)
- IC50 (Chikungunya virus [31]): 54.5 µM
